From patent publication US4201774A, “Novel aminoglycoside derivatives” (Shionogi & Co., Ltd., priority 1977, dated 1980) come the findings set out here.

The structures appear in SMILES notation. ≈ marks a conversion by molar mass, not a printed value. Where only a bound is given, the exact number is not on record here.

For assay [1], the system named is Escherichia coli W-677/JR 214. The experiment in a line: MIC, Escherichia coli W-677/JR 214*. To be noted: W677/JR214, read-out: minimum inhibitory concentration (MIC).
Assay [2] has as its system Klebsiella pneumoniae Kl-187. The experiment in a line: MIC, Klebsiella pneumoniae Kl-187*. The conditions noted are these: KL187, read-out: minimum inhibitory concentration (MIC).
Assay [3] has as its system Enterobacter cloacae Cl-126. The experiment in a line: MIC, Enterobacter cloacae Cl-126*. To be noted: CL126, read-out: minimum inhibitory concentration (MIC).
The test system of assay [4] is Pseudomonas aeruginosa PP-6. The experiment in a line: MIC, Pseudomonas aeruginosa PP-6*. To be noted: PP6, read-out: minimum inhibitory concentration (MIC).
The next assay has as its system Proteus inconstans In-43. The experiment in a line: MIC, Proteus inconstans In-43*. The format is cell-based. To be noted: Providencia alcalifaciens, IN43; Proteus inconstans In-43, tobramycin resistant strain; read-out: minimum inhibitory concentration (MIC).
The next assay has as its system Escherichia coli EC-147. Kind of assay: MIC, Escherichia coli EC-147*. The conditions noted are these: EC147, read-out: minimum inhibitory concentration (MIC).
The test system of assay [5] is Citrobactor freundii Ct-52. The experiment in a line: MIC, Citrobactor freundii Ct-52*. To be noted: read-out: minimum inhibitory concentration (MIC).
The test system of assay [6] is Escherichia coli W-677/JR-762. Kind of assay: MIC, Escherichia coli W-677/JR-762*. To be noted: W677/JR762, read-out: minimum inhibitory concentration (MIC).
Assay [7] deals with Escherichia coli W-677/JR 225. Kind of assay: MIC, Escherichia coli W-677/JR 225*. To be noted: W677/JR225, read-out: minimum inhibitory concentration (MIC).
The subject of another assay is Escherichia coli EC-148. The experiment in a line: MIC, Escherichia coli EC-148*. To be noted: EC148, read-out: minimum inhibitory concentration (MIC).
Another assay concerns Seratia marcescens MA-81. Kind of assay: MIC, Seratia marcescens MA-81*. The format is cell-based. To be noted: Seratia marcescens MA-81, tobramycin resistant strain; read-out: minimum inhibitory concentration (MIC).
Assay [8] relates to Staphylococcus aureus S-25. Kind of assay: MIC, Staphylococcus aureus S-25*. To be noted: S25, read-out: minimum inhibitory concentration (MIC).
For assay [9], the system named is Staphylococus epidermidis TB-302. The experiment in a line: MIC, Staphylococus epidermidis TB-302. The format is cell-based. To be noted: read-out: minimum inhibitory concentration (MIC).

Consider `NC[C@H]1O[C@H](O[C@H]2[C@H](O)[C@@H](O[C@H]3O[C@H](CO)[C@@H](O)[C@H](N)[C@H]3O)[C@H](NCC3(O)CCNC3)C[C@@H]2N)[C@H](N)C[C@@H]1O` (some centres unmarked) [Test compound (2), 1-N-[(3-hydroxypyrrolidin-3-yl)methyl]tobramycin], for which the MIC in assay [1] was determined as 1.56 µg/mL (≈ 2.75 µM); in [2], 0.39 µg/mL (≈ 0.688 µM); in assay [3], 0.78 µg/mL (≈ 1.38 µM); in assay [4], 0.78 µg/mL (≈ 1.38 µM); in the assay with Proteus inconstans In-43 it was 12.5 µg/mL (≈ 22.1 µM); in the assay on Escherichia coli EC-147, 3.13 µg/mL (≈ 5.52 µM). Moreover, the MIC is 0.78 µg/mL (≈ 1.38 µM) in assay [5]; 3.13 µg/mL (≈ 5.52 µM) in assay [6]; 0.78 µg/mL (≈ 1.38 µM) in assay [7]; 3.13 µg/mL (≈ 5.52 µM) in the assay on Escherichia coli EC-148; 12.5 µg/mL (≈ 22.1 µM) in the assay with Seratia marcescens MA-81; 25 µg/mL (≈ 44.1 µM) in [8]. Further, the MIC in assay [9] was 1.56 µg/mL (≈ 2.75 µM).

Regarding `NC[C@H]1O[C@H](O[C@H]2[C@H](O)[C@@H](O[C@H]3O[C@H](CO)[C@@H](O)[C@H](N)[C@H]3O)[C@H](N)C[C@@H]2N)[C@H](N)C[C@@H]1O` [Test compound (5), tobramycin, reference compound], the MIC in assay [1] came out at 100 µg/mL (≈ 214 µM); in assay [2] it was 25 µg/mL (≈ 53.5 µM); in assay [3], 25 µg/mL (≈ 53.5 µM); in [4], 50 µg/mL (≈ 107 µM); in the assay on Proteus inconstans In-43, 6.25 µg/mL (≈ 13.4 µM); in the assay on Escherichia coli EC-147, 50 µg/mL (≈ 107 µM). The MIC in [5] was 25 µg/mL (≈ 53.5 µM); in assay [6], above 100 µg/mL; in assay [7] it was 50 µg/mL (≈ 107 µM); in the assay with Escherichia coli EC-148, 100 µg/mL (≈ 214 µM); in the assay on Seratia marcescens MA-81, above 100 µg/mL; in assay [8], 100 µg/mL (≈ 214 µM). The MIC in [9] amounted to 3.13 µg/mL (≈ 6.69 µM).

In the case of `NC[C@H]1O[C@H](O[C@H]2[C@H](O)[C@@H](O[C@H]3O[C@H](CO)[C@@H](O)[C@H](N)[C@H]3O)[C@H](NCC3(O)CNC3)C[C@@H]2N)[C@H](N)C[C@@H]1O` [Test compound (1), 1-N-[(3-hydroxyazetidin-3-yl)methyl]tobramycin], the MIC in [1] was 1.56 µg/mL (≈ 2.82 µM); in [2] it was 0.78 µg/mL (≈ 1.41 µM); in assay [3] it was 0.78 µg/mL (≈ 1.41 µM); in [4], 0.78 µg/mL (≈ 1.41 µM); with Proteus inconstans In-43 it was 6.25 µg/mL (≈ 11.3 µM); with Escherichia coli EC-147, 3.13 µg/mL (≈ 5.66 µM). Also, the MIC was found to be 0.78 µg/mL (≈ 1.41 µM) in [5]; 3.13 µg/mL (≈ 5.66 µM) in [6]; 1.56 µg/mL (≈ 2.82 µM) in [7]; 3.13 µg/mL (≈ 5.66 µM) in the assay on Escherichia coli EC-148; 12.5 µg/mL (≈ 22.6 µM) with Seratia marcescens MA-81; 50 µg/mL (≈ 90.5 µM) in [8]. The MIC in assay [9] stood at 3.13 µg/mL (≈ 5.66 µM).

Take `NC[C@H]1O[C@H](O[C@H]2[C@H](O)[C@@H](O[C@H]3O[C@H](CO)[C@@H](O)[C@H](N)[C@H]3O)[C@H](NCC3(O)CCNC3)C[C@@H]2N)[C@H](O)[C@@H](O)[C@@H]1O` (some centres unmarked) [Test compound (4), 1-N-[(3-hydroxypyrrolidin-3-yl)methyl]kanamycin A]: the MIC in [1] was determined as 3.13 µg/mL (≈ 5.36 µM); in assay [2] it was 1.56 µg/mL (≈ 2.67 µM); in [3] it was 1.56 µg/mL (≈ 2.67 µM); in assay [4], 3.13 µg/mL (≈ 5.36 µM); in the assay with Proteus inconstans In-43, 3.13 µg/mL (≈ 5.36 µM); in the assay with Escherichia coli EC-147, 6.25 µg/mL (≈ 10.7 µM). For the same molecule, the MIC in assay [5] is 1.56 µg/mL (≈ 2.67 µM); in assay [6] it was 12.5 µg/mL (≈ 21.4 µM); in assay [7] it was 3.13 µg/mL (≈ 5.36 µM); with Escherichia coli EC-148 it was 6.25 µg/mL (≈ 10.7 µM); in the assay with Seratia marcescens MA-81, 12.5 µg/mL (≈ 21.4 µM); in assay [8] it was 12.5 µg/mL (≈ 21.4 µM). The MIC in [9] was 1.56 µg/mL (≈ 2.67 µM).

Consider `NC[C@H]1O[C@H](O[C@H]2[C@H](O)[C@@H](O[C@H]3O[C@H](CO)[C@@H](O)[C@H](N)[C@H]3O)[C@H](NCC3(O)CNC3)C[C@@H]2N)[C@H](O)[C@@H](O)[C@@H]1O` [Test compound (3), 1-N-[(3-hydroxyazetidin-3-yl)methyl]kanamycin A], for which the MIC in assay [1] was 6.25 µg/mL (≈ 11 µM); in assay [2] it was 1.56 µg/mL (≈ 2.74 µM); in assay [3], 1.56 µg/mL (≈ 2.74 µM); in [4], 3.13 µg/mL (≈ 5.49 µM); in the assay on Proteus inconstans In-43, 3.13 µg/mL (≈ 5.49 µM); in the assay with Escherichia coli EC-147, 6.25 µg/mL (≈ 11 µM). Also, the MIC came out at 3.13 µg/mL (≈ 5.49 µM) in assay [5]; 12.5 µg/mL (≈ 21.9 µM) in assay [6]; 3.13 µg/mL (≈ 5.49 µM) in assay [7]; 12.5 µg/mL (≈ 21.9 µM) in the assay on Escherichia coli EC-148; 12.5 µg/mL (≈ 21.9 µM) in the assay with Seratia marcescens MA-81; 25 µg/mL (≈ 43.9 µM) in assay [8]. Moreover, in assay [9], the MIC is 3.13 µg/mL (≈ 5.49 µM).
